Data reported in patent US11147881B2, “Controlled drug release liposome compositions and methods thereof” (TAIWAN LIPOSOME COMPANY, LTD., priority 2013, dated 2021).
Values belong to the compound of their own block, whether it stands above or below them.

Assays:
[1] = Precipitation study of irinotecan with mono- and polyvalent counterion donors; assay type: physicochemical
Procedure: (§1) To examine the precipitation, therapeutic agent solution(s) and counterion donor(s), or therapeutic agent solution(s) and combination of counterion donors were mixed, followed by vigorous agitation and high speed centrifugation to separate insoluble precipitate and free form therapeutic agent(s). The concentration of the free form therapeutic agent(s) was determined by measuring the corresponding absorbance with a plate reader.
(§2) Various compositions were prepared by mixing 60 mg/mL of irinotecan solution and liposomes with 1 mM to 22.5 mM of dextran sulfate (molecular weight 1,600), or with 300 mM of ammonium sulfate and 1 mM to 22.5 mM of dextran sulfate (molecular weight 1,600), followed by vigorous agitation by vortex and centrifugation at 21,460×g for 30 minutes to separate insoluble precipitate from free-form irinotecan. The volume ratio for mixing the irinotecan solution and the counterion donor solution was 1:2, with the final equivalent counterion donor concentrations shown in Table 13.

[2] = Precipitation study of vinorelbine with mono- and polyvalent counterion donors; assay type: physicochemical
Procedure: As shown in Example 7, the percentage of encapsulated vinorelbine remaining after plasma incubation is adjustable according to the present invention. The percentage of encapsulated therapeutic agent remaining after plasma incubation can be monitored by precipitation among encapsulated therapeutic agent(s) and counterion donor(s) in the aqueous environment as in FIG. 1, FIG. 5, and FIG. 6. The counterion donors could be selected from monovalent counterion donor(s), polyvalent counterion donor(s), or a combination thereof.
as §1
as §2, with “vinorelbine” for “irinotecan”, “vinorelbine.” for “irinotecan.”, “12.” for “13.”

[3] = AS = 0 mM, DS = 0.67 mM (5.27 mEq/L)
[4] = AS = 0 mM, DS = 2.5 mM (19.68 mEq/L)
[5] = AS = 0 mM, DS = 5 mM (39.35 mEq/L)
[6] = AS = 0 mM, DS = 15 mM (118.05 mEq/L)
[7] = AS = 200 mM, DS = 0 mM (0 mEq/L)
[8] = AS = 200 mM, DS = 0.67 mM (5.27 mEq/L)
[9] = AS = 200 mM, DS = 2.5 mM (19.68 mEq/L)
[10] = AS = 200 mM, DS = 5 mM (39.35 mEq/L)
[11] = AS = 200 mM, DS = 15 mM (118.05 mEq/L)

Percentage of free-form CPT11 remaining ([1]; AS = 0 mM, DS = 0 mM): 103.4%
Percentage of free-form CPT11 remaining [1, 3]: 82.0%
Percentage of free-form CPT11 remaining ([1]; AS = 0 mM, DS = 1.6 mM (12.59 mEq/L)): 50.9%
Percentage of free-form CPT11 remaining [1, 4]: 27.3%
Percentage of free-form CPT11 remaining [1, 5]: 2.3%
Percentage of free-form CPT11 remaining [1, 6]: 3.8%
Percentage of free-form CPT11 remaining [1, 7]: 101.1%
Percentage of free-form CPT11 remaining [1, 8]: 83.8%
Percentage of free-form CPT11 remaining ([1]; AS = 200 mM, DS = 1.6 mM (12.59 mEq/L)): 59.4%
Percentage of free-form CPT11 remaining [1, 9]: 38.3%
Percentage of free-form CPT11 remaining [1, 10]: 9.7%
Percentage of free-form CPT11 remaining [1, 11]: 9.0%
visible precipitation with sodium dextran sulfate ([1]; FIG. 6 left): precipitation
visible precipitation with ammonium sulfate ([1]; FIG. 6 right): no visible precipitation
enhancement of free-form irinotecan by ammonium sulfate (as compared to DS alone) ([1]; maximum, at DS of 19.68 mEq/L): up to 11%
Structure (SMILES): CCc1c2c(nc3ccc(OC(=O)N4CCC(N5CCCCC5)CC4)cc13)-c1cc3c(c(=O)n1C2)COC(=O)[C@]3(O)CC [irinotecan]

Percentage of free-form VNB remaining ([2]; AS = 0 mM, DS = 0 mM): 100.7%
Percentage of free-form VNB remaining [2, 3]: 87.1%
Percentage of free-form VNB remaining [2, 4]: 54.0%
Percentage of free-form VNB remaining [2, 5]: 11.0%
Percentage of free-form VNB remaining [2, 6]: 5.4%
Percentage of free-form VNB remaining [2, 7]: 97.6%
Percentage of free-form VNB remaining [2, 8]: 83.3%
Percentage of free-form VNB remaining [2, 9]: 59.0%
Percentage of free-form VNB remaining [2, 10]: 21.2%
Percentage of free-form VNB remaining [2, 11]: 5.7%
visible precipitation with sodium dextran sulfate ([2]; FIG. 5 left): precipitation
visible precipitation with ammonium sulfate ([2]; FIG. 5 right): no visible precipitation
enhancement of free-form vinorelbine by ammonium sulfate (as compared to DS alone) ([2]; maximum, at DS of 39.35 mEq/L): up to 10.2%
Structure (SMILES): CCC1=C[C@@H]2CN(C1)Cc1c([nH]c3ccccc13)[C@@](C(=O)OC)(c1cc3c(cc1OC)N(C)[C@H]1[C@@](O)(C(=O)OC)[C@H](OC(C)=O)[C@]4(CC)C=CCN5CC[C@]31[C@@H]54)C2 [vinorelbine]
